Common to all, as to format: functional, organism-based
The test system of test [1] is Tetranychus urticae. In words: Acaricidal activity against Tetranychus urticae (two-spotted spider mite) infested kidney bean leaves assessed as decrease in reproduction of survivors applied as spray after 7 days.
Test [2] has as its system Tetranychus urticae. In words: Acaricidal activity against Tetranychus urticae (two-spotted spider mite) infested kidney bean leaves assessed as decrease in reproduction of survivors applied as spray after 5 days.
The subject of test [3] is Tetranychus urticae. In words: Acaricidal activity against Tetranychus urticae (two-spotted spider mite) infested kidney bean leaves assessed as decrease in reproduction of survivors applied as spray after 3 days.
In test [4] the test system is Tetranychus urticae. The test is described as follows: Acaricidal activity against Tetranychus urticae (two-spotted spider mite) infested kidney bean leaves assessed as decrease in survivors of progeny applied as spray after 7 days.
The test system of test [5] is Tetranychus urticae. The test is described as follows: Acaricidal activity against Tetranychus urticae (two-spotted spider mite) infested kidney bean leaves assessed as decrease in survivors of progeny applied as spray after 5 days.
Test [6] deals with Tetranychus urticae. The test is described as follows: Acaricidal activity against Tetranychus urticae (two-spotted spider mite) infested kidney bean leaves assessed as decrease in survivors of progeny applied as spray after 3 days.
The test system of test [7] is Tetranychus urticae. In words: Acaricidal activity against Tetranychus urticae (two-spotted spider mite) infested kidney bean leaves assessed as decrease in survivors of progeny applied as spray after 1 day.
For test [8], the system named is Tetranychus urticae. In words: Acaricidal activity against Tetranychus urticae (two-spotted spider mite) infested kidney bean leaves assessed as decrease in reproduction of survivors applied as spray after 9 days.
For test [9], the system named is Tetranychus urticae. In words: Acaricidal activity against Tetranychus urticae (two-spotted spider mite) infested kidney bean leaves assessed as decrease in immature production at 6.4 to 46.6 ppm applied as spray after 3 to 6 days.
Test [10] relates to Tetranychus urticae. In words: Acaricidal activity against Tetranychus urticae (two-spotted spider mite) infested kidney bean leaves assessed as decrease in survival at 6.4 to 46.6 ppm applied as spray after 7 to 9 days relative to control.
For test [11], the system named is Tetranychus urticae. In words: Acaricidal activity against Tetranychus urticae (two-spotted spider mite) infested kidney bean leaves assessed as decrease in survival at 6.4 to 46.6 ppm applied as spray up to 5 days relative to control.
The test system of test [12] is Tetranychus urticae. The test is described as follows: Acaricidal activity against Tetranychus urticae (two-spotted spider mite) infested kidney bean leaves assessed as decrease in reproduction of survivors applied as spray after 1 day.
Test [13] has as its system Tetranychus urticae. The test is described as follows: Acaricidal activity against Tetranychus urticae (two-spotted spider mite) infested kidney bean leaves assessed as decrease in survivors of progeny applied as spray after 9 days.
For test [14], the system named is Tetranychus urticae. In words: Acaricidal activity against Tetranychus urticae (two-spotted spider mite) infested kidney bean leaves assessed as decrease in immature production at 2101 ppm applied as spray after 3 to 6 days.
Test [15] has as its system Tetranychus urticae. In words: Acaricidal activity against Tetranychus urticae (two-spotted spider mite) infested kidney bean leaves assessed as decrease in egg production applied as spray after 3 to 6 days.
Test [16] concerns Tetranychus urticae. In words: Acaricidal activity against Tetranychus urticae (two-spotted spider mite) infested kidney bean leaves assessed as decrease in survival at 2101.3 to 20446.5 ppm applied as spray after 3 days relative to control.

The source made the active and inactive calls. The rule behind the calls is not given here.

For the compound `Cc1nn(C)c(Oc2ccccc2)c1/C=N/OCc1ccc(C(=O)OC(C)(C)C)cc1` [FENPYROXYMATE], the EC50 in test [1] is reported as 124 ppm; in test [2], 130.8 ppm; in [3], 131.1 ppm; in test [4] it was 70.1 ppm; in [5], 72.7 ppm; in test [6], 99 ppm. The EC50 in test [7] turned out to be 116.2 ppm; in test [8] it was 253.7 ppm; in test [12] it was 114.6 ppm; in test [13] it was 104 ppm. Further, the outcome in [9] and in test [11] was Active. Also, in test [10], the outcome was inactive.
In the case of `CC(C)(C)c1ccc(CSc2cnn(C(C)(C)C)c(=O)c2Cl)cc1` [PYRIDABEN], the EC50 in test [1] is on record as 19425.1 ppm; in [2], 19439.6 ppm; in [3], 19162.1 ppm; in test [8], 49880.7 ppm; in test [12], 9118.1 ppm. The result in test [14] was Active. Further, in [15], the Activity entry is “Dose-dependent effect”. Also, in test [16], the outcome was inactive.

For the origin of these results see ChEMBL document CHEMBL3044627, “Residual and sublethal effects of fenpyroximate and pyridaben on the instantaneous rate of increase of Tetranychus urticae” (Crop Prot, 2006).
